We go through 8 compounds from ChEMBL document CHEMBL1201862, “PubChem BioAssay data set” (2004).

What all share (assay): inhibition of tumour cell growth, NCI panel, 48 h
Assay [1] concerns MOLT-4.
For assay [2], the system named is OVCAR-4.
The test system of assay [3] is TK-10.
For assay [4], the system named is SF-295.
For assay [5], the system named is IGROV-1.
Assay [6] concerns ACHN.
The test system of assay [7] is EKVX.
Assay [8] has as its system RXF 393.
For assay [9], the system named is SN12C.
The subject of assay [10] is KM12.
Assay [11] relates to A549.
Assay [12] deals with SW-620.
The test system of assay [13] is SK-MEL-2.
The subject of assay [14] is SF-268.
For assay [15], the system named is SK-MEL-5.
The test system of assay [16] is CAKI-1.
Assay [17] has as its system NCI/ADR-RES.
Assay [18] relates to NCI-H522.
Assay [19] concerns LOX IMVI.
Assay [20] deals with SK-OV-3.

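Five compound concentrations were applied to cells in 96-well plates for 48 hours; endpoints were derived by simple linear interpolation of the resulting dose-response curve. GI50 is the concentration that inhibits growth by half.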 Activity calls are given as the source filed them. Rule as the data show it: active = GI50 up to about 1.1 µM and inactive = higher.

On to `CCOC(=O)c1ccc(C(=O)n2ccnc2)[nH]1`, for which the GI50 in [1] is > 100 µM (inactive); in assay [2], 84.3 µM (inactive); in assay [3], > 100 µM (inactive); in [4], > 100 µM (inactive); in assay [5], > 100 µM (inactive); in assay [6] it was > 100 µM (inactive). Also, the GI50 in assay [7] was > 100 µM (inactive); in assay [8], 85.7 µM (inactive); in assay [9], > 100 µM (inactive); in assay [10], > 100 µM (inactive); in [11], > 100 µM (inactive); in assay [12], > 100 µM (inactive). Besides, the GI50 in assay [13], in assay [14], in [15], in [16], in [17] and in assay [18] was > 100 µM (inactive) each time. In addition, in [19], the GI50 is > 100 µM (inactive).
As to `Cc1nc2n(c1/C=C1/C(=O)Nc3cccc(Cl)c31)CCS2`, the GI50 in assay [1] was 35.2 µM (inactive); in assay [3] it was 37.7 µM (inactive); in assay [20] it was 16.7 µM (inactive); in assay [4], 27.5 µM (inactive); in assay [5], 48.8 µM (inactive); in [6], 31 µM (inactive). The GI50 is 31.8 µM (inactive) in assay [7]; 20.7 µM (inactive) in assay [8]; 25.1 µM (inactive) in assay [9]; > 100 µM (inactive) in assay [10]; 56.1 µM (inactive) in assay [11]; > 100 µM (inactive) in assay [12]. The GI50 in assay [13] was 17.1 µM (inactive); in [14], 19.5 µM (inactive); in [15], 55.1 µM (inactive); in [16] it was 46.3 µM (inactive); in assay [17], 31.1 µM (inactive); in assay [18], 21.5 µM (inactive). Also, the GI50 in [19] was 81.7 µM (inactive).
Regarding `CC(=O)[C@@]1(c2ccccc2)CC2(CCN(C)CC2)O[C@H]1C`, the GI50 in assay [1], in assay [2], in assay [3], in [20], in assay [4] and in assay [5] was > 100 µM (inactive) each time. For the same compound, the GI50 in assay [6], in assay [7], in assay [8], in [9], in [10] and in assay [11] was > 100 µM (inactive) each time. Also, the GI50 in [12], in assay [14], in assay [15], in assay [16], in assay [17] and in [18] was > 100 µM (inactive) throughout. For the same compound, the GI50 in assay [19] is > 100 µM (inactive).
In the case of `C=C(NC(=O)C(=C)NC(=O)c1ccc2c(n1)-c1coc(n1)C(=C)NC(=O)C(=C)NC(=O)c1nc(oc1C)C(=C)NC(=O)C(C(C)(C)O)NC(=O)C(=C)NC(=O)c1coc(n1)/C(=C/C)NC(=O)[C@H]([C@@H](C)O)NC(=O)c1csc-2n1)C(N)=O` (stereo partly drawn), the GI50 in [1] was > 87.5 µM (inactive); in assay [2], > 87.5 µM (inactive); in assay [3], > 87.5 µM (inactive); in assay [4], > 87.5 µM (inactive); in assay [5], 61.1 µM (inactive); in assay [6] it was > 87.5 µM (inactive). The GI50 in assay [7] was > 87.5 µM (inactive); in assay [8], > 87.5 µM (inactive); in assay [9] it was > 87.5 µM (inactive); in [10], 66.7 µM (inactive); in assay [11] it was > 87.5 µM (inactive); in assay [12], > 87.5 µM (inactive). Further, the GI50 in assay [13] is > 87.5 µM (inactive); in assay [14], > 87.5 µM (inactive); in assay [15], 41.6 µM (inactive); in assay [16], > 87.5 µM (inactive); in assay [17], > 87.5 µM (inactive); in [18], > 87.5 µM (inactive). Also, in assay [19], the GI50 is 53.8 µM (inactive).
Turning to `O=C1C(Cl)=C(N2CCSCC2)C(=O)c2c(O)ccc(O)c21`, the GI50 in [1] is 0.641 µM (active); in assay [2], 0.552 µM (active); in [3], 0.465 µM (active); in [20], 0.581 µM (active); in assay [4], 0.1 µM (active); in assay [5], 0.776 µM (active). The GI50 in assay [6] is 0.424 µM (active); in assay [8] it was 0.243 µM (active); in [10] it was 0.38 µM (active); in assay [11], 0.469 µM (active); in assay [12] it was 0.258 µM (active); in assay [13], 0.204 µM (active). In addition, the GI50 in assay [14] was 0.514 µM (active); in assay [15], 0.451 µM (active); in [16] it was 0.528 µM (active); in [17], 0.1 µM (active); in assay [18], 0.312 µM (active); in [19] it was 0.186 µM (active).
In the case of `CN1CN(c2ccccc2)C2(CCN(CCCC(=O)c3cccs3)CC2)C1=O`, the GI50 in assay [1] was 32.8 µM (inactive); in assay [3] it was 27.7 µM (inactive); in [20], 38.4 µM (inactive); in assay [4], 33 µM (inactive); in [5], 41.3 µM (inactive); in [6], 40.2 µM (inactive). In addition, the GI50 in assay [7] was 31.5 µM (inactive); in [8], > 100 µM (inactive); in assay [9], 48.4 µM (inactive); in assay [10] it was 75.7 µM (inactive); in assay [11], 29.3 µM (inactive); in assay [12], 42.2 µM (inactive). Further, the GI50 in assay [14] is 74.8 µM (inactive); in assay [15], 22.9 µM (inactive); in assay [16], 33.1 µM (inactive); in assay [17], 41 µM (inactive); in [18], > 100 µM (inactive); in assay [19], 47.1 µM (inactive).
On to `COc1cc(C)cc(OC)c1/C=C/C(=O)O`, for which the GI50 in [1], in assay [2], in assay [3], in [4], in [5] and in assay [6] was > 100 µM (inactive) throughout. Moreover, the GI50 in assay [7], in [8], in [9], in assay [10], in [11] and in assay [12] was > 100 µM (inactive) each time. In addition, the GI50 in [13], in assay [14], in assay [15], in [16], in assay [17] and in assay [18] was > 100 µM (inactive) in each case. In [19], the GI50 was > 100 µM (inactive).
With `S=C(S)N1CCN(c2ccccc2)CC1`, the GI50 in [3], in assay [4], in assay [5], in assay [6], in assay [7] and in assay [8] was > 100 µM (inactive) in each case. Further, the GI50 in [9] is > 100 µM (inactive); in [10], > 100 µM (inactive); in assay [11] it was > 100 µM (inactive); in assay [12], 71.9 µM (inactive); in [13], 37.9 µM (inactive); in [14] it was 88.3 µM (inactive). Besides, the GI50 in assay [15] is 20.7 µM (inactive); in assay [16], > 100 µM (inactive); in [17] it was > 100 µM (inactive); in [18] it was > 100 µM (inactive); in assay [19], 32.9 µM (inactive).
